Results from ChEMBL document CHEMBL5113398, “Design and synthesis of new quinoline derivatives as selective C-RAF kinase inhibitors with potent anticancer activity” (Eur J Med Chem, 2022).
In brackets after ≈: the same amount, converted by molar mass.

What was measured:
[1] = test system: HCT-15; assay: Anticancer activity against human HCT-15 cells assessed as cell growth inhibition incubated for 48 hrs by SRB assay; type: functional
[2] = test system: K562; assay: Anticancer activity against human K562 cells assessed as cell growth inhibition incubated for 48 hrs by SRB assay; type: functional
[3] = test system: RXF 393; assay: Anticancer activity against human RXF 393 cells assessed as cell growth inhibition incubated for 48 hrs by SRB assay; type: functional
[4] = test system: HCT-15; assay: Anticancer activity against human HCT-15 cells assessed as total cell growth inhibition incubated for 48 hrs by SRB assay; type: functional
[5] = test system: SK-MEL-5; assay: Anticancer activity against human SK-MEL-5 cells assessed as total cell growth inhibition incubated for 48 hrs by SRB assay; type: functional
[6] = test system: NCI/ADR-RES; assay: Anticancer activity against human NCI/ADR-RES cells assessed as cell growth inhibition incubated for 48 hrs by SRB assay; type: functional
[7] = test system: HCT-116; assay: Anticancer activity against human HCT-116 cells assessed as total cell growth inhibition incubated for 48 hrs by SRB assay; type: functional
[8] = Aqueous solubility of compound by HPLC analysis; type: physicochemical
[9] = test system: NCI-H460; assay: Anticancer activity against human NCI-H460 cells assessed as cell growth inhibition incubated for 48 hrs by SRB assay; type: functional
[10] = test system: UACC-257; assay: Anticancer activity against human UACC-257 cells assessed as total cell growth inhibition incubated for 48 hrs by SRB assay; type: functional
[11] = test system: SNB-75; assay: Anticancer activity against human SNB-75 cells assessed as cell growth inhibition incubated for 48 hrs by SRB assay; type: functional
[12] = test system: Malme-3M; assay: Anticancer activity against human Malme-3M cells assessed as total cell growth inhibition incubated for 48 hrs by SRB assay; type: functional
[13] = biological target: Serine/threonine-protein kinase B-raf (Homo sapiens) (UniProt P15056); assay: Inhibition of wild type B-RAF (unknown origin) at 1 uM in presence of ATP by hotspot kinase assay
Chain of Serine/threonine-protein kinase B-raf (Homo sapiens) (P15056 whole entry): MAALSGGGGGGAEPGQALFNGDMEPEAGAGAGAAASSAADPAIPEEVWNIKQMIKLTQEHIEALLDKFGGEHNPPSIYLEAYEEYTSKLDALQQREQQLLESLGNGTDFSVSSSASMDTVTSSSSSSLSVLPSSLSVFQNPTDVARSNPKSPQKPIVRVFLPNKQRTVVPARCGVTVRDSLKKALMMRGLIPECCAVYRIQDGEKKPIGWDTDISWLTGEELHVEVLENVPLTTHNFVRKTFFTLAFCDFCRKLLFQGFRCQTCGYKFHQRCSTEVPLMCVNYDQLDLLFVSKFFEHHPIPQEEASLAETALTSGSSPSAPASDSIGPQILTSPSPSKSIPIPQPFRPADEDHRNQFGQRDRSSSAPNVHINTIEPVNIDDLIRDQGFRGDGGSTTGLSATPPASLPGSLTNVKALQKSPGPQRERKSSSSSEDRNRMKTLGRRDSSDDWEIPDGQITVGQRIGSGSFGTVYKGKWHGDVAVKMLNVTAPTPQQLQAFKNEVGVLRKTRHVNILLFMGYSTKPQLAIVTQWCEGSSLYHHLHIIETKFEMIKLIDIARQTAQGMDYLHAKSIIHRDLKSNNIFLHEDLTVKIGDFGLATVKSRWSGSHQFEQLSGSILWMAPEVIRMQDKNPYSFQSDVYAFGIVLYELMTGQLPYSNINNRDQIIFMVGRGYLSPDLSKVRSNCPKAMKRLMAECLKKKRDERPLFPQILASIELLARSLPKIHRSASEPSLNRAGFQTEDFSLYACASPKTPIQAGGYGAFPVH

[14] = test system: UO-31; assay: Anticancer activity against human UO-31 cells assessed as cell growth inhibition incubated for 48 hrs by SRB assay; type: functional
[15] = test system: OVCAR-8; assay: Anticancer activity against human OVCAR-8 cells assessed as total cell growth inhibition incubated for 48 hrs by SRB assay; type: functional
[16] = test system: SF-268; assay: Anticancer activity against human SF-268 cells assessed as cell growth inhibition incubated for 48 hrs by SRB assay; type: functional
[17] = biological target: Serine/threonine-protein kinase A-Raf (Homo sapiens) (UniProt P10398); assay: Inhibition of A-Raf (unknown origin) at 1 uM in presence of ATP by hotspot kinase assay
Chain of Serine/threonine-protein kinase A-Raf (Homo sapiens) (P10398 whole entry): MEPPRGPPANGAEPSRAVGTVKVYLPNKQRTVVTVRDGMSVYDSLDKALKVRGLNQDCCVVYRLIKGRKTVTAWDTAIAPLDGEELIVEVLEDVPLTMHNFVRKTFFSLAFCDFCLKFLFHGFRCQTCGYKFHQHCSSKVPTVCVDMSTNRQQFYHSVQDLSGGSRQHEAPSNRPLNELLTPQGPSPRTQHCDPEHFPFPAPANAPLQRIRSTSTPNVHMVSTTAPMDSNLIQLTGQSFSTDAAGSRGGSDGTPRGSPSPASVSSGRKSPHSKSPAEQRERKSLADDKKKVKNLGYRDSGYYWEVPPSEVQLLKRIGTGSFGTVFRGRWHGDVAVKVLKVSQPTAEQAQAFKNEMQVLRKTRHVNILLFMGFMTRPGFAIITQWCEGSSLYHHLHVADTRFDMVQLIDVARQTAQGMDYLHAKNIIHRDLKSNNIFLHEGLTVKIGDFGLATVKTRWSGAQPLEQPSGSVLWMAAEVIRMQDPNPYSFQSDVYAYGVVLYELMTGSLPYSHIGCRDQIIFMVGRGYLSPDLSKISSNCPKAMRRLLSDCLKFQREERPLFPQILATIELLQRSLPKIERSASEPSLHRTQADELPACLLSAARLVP

[18] = test system: EKVX; assay: Anticancer activity against human EKVX cells assessed as total cell growth inhibition incubated for 48 hrs by SRB assay; type: functional
[19] = test system: KM12; assay: Anticancer activity against human KM12 cells assessed as cell growth inhibition incubated for 48 hrs by SRB assay; type: functional
[20] = test system: LOX IMVI; assay: Anticancer activity against human LOX IMVI cells assessed as total cell growth inhibition incubated for 48 hrs by SRB assay; type: functional
[21] = test system: COLO 205; assay: Anticancer activity against human COLO 205 cells assessed as total cell growth inhibition incubated for 48 hrs by SRB assay; type: functional
[22] = test system: UACC-257; assay: Anticancer activity against human UACC-257 cells assessed as cell growth inhibition incubated for 48 hrs by SRB assay; type: functional
[23] = test system: KM12; assay: Anticancer activity against human KM12 cells assessed as total cell growth inhibition incubated for 48 hrs by SRB assay; type: functional
[24] = test system: HL-60; assay: Anticancer activity against human HL-60 cells assessed as total cell growth inhibition incubated for 48 hrs by SRB assay; type: functional
[25] = test system: SK-MEL-28; assay: Anticancer activity against human SK-MEL-28 cells assessed as total cell growth inhibition incubated for 48 hrs by SRB assay; type: functional
[26] = test system: BT-549; assay: Anticancer activity against human BT-549 cells assessed as total cell growth inhibition incubated for 48 hrs by SRB assay; type: functional
[27] = test system: 786-0; assay: Anticancer activity against human 786-0 cells assessed as total cell growth inhibition incubated for 48 hrs by SRB assay; type: functional
[28] = test system: COLO 205; assay: Anticancer activity against human COLO 205 cells assessed as cell growth inhibition incubated for 48 hrs by SRB assay; type: functional
[29] = test system: A549; assay: Anticancer activity against human A549 cells assessed as total cell growth inhibition incubated for 48 hrs by SRB assay; type: functional
[30] = test system: OVCAR-3; assay: Anticancer activity against human OVCAR-3 cells assessed as total cell growth inhibition incubated for 48 hrs by SRB assay; type: functional
[31] = test system: DU-145; assay: Anticancer activity against human DU-145 cells assessed as cell growth inhibition incubated for 48 hrs by SRB assay; type: functional
[32] = test system: NCI-H522; assay: Anticancer activity against human NCI-H522 cells assessed as total cell growth inhibition incubated for 48 hrs by SRB assay; type: functional
[33] = biological target: RAF proto-oncogene serine/threonine-protein kinase (Homo sapiens, UniProt P04049); assay: Inhibition of c-Raf (unknown origin) in presence of ATP by hotspot kinase assay
Chain of RAF proto-oncogene serine/threonine-protein kinase (P04049 whole entry): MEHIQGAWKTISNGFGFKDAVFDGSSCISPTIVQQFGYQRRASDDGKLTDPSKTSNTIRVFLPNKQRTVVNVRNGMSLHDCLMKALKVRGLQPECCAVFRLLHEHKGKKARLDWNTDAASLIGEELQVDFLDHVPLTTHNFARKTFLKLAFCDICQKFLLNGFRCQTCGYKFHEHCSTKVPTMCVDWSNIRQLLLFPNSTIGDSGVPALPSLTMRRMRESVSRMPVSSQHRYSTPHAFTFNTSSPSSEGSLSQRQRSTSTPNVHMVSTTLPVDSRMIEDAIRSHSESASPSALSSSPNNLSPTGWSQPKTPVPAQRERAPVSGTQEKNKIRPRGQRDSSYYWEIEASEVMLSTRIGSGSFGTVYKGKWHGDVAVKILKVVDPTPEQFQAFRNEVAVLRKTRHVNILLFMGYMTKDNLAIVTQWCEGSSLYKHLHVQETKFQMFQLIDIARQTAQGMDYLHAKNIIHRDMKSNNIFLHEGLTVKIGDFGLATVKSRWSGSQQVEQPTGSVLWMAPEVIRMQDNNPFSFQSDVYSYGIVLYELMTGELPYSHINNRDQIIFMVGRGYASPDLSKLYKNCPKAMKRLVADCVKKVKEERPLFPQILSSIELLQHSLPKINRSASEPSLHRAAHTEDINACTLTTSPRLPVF

[34] = test system: SK-OV-3; assay: Anticancer activity against human SK-OV-3 cells assessed as total cell growth inhibition incubated for 48 hrs by SRB assay; type: functional
[35] = test system: T47D; assay: Anticancer activity against human T47D cells assessed as cell growth inhibition incubated for 48 hrs by SRB assay; type: functional
[36] = test system: HOP-62; assay: Anticancer activity against human HOP-62 cells assessed as cell growth inhibition incubated for 48 hrs by SRB assay; type: functional
[37] = biological target: Receptor-type tyrosine-protein kinase FLT3 (Homo sapiens) (UniProt P36888); assay: Inhibition of FLT3 (unknown origin) at 1 uM in presence of ATP by hotspot kinase assay
Chain of Receptor-type tyrosine-protein kinase FLT3 (Homo sapiens) (P36888 whole entry): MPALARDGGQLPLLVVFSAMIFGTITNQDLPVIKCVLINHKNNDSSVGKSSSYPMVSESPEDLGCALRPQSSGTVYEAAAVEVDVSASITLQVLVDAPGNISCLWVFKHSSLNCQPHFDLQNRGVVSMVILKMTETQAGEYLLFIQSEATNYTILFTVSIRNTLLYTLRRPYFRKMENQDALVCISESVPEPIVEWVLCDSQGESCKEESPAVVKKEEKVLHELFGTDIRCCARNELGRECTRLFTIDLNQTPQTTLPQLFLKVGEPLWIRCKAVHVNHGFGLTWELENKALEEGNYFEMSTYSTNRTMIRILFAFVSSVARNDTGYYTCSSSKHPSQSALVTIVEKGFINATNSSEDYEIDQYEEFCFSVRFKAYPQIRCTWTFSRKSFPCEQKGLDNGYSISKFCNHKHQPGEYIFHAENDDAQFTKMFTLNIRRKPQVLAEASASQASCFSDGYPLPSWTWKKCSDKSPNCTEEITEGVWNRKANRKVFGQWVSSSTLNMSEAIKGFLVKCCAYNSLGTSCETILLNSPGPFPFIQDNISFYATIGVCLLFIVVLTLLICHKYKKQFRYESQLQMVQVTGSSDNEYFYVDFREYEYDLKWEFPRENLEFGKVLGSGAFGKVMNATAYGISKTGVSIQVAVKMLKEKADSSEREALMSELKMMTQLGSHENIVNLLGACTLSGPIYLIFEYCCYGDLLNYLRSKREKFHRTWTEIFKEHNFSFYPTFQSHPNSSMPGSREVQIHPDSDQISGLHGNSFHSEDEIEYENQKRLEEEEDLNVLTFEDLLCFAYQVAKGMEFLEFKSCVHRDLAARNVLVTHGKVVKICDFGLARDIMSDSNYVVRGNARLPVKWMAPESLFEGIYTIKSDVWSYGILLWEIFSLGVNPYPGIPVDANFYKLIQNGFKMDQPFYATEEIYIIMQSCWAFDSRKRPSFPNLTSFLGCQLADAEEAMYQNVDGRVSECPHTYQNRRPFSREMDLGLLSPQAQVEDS

[38] = test system: RPMI-8226; assay: Induction of necrosis in human RPMI-8226 cells assessed as LDH release at 0.84 uM; type: functional
[39] = test system: RPMI-8226; assay: Induction of apoptosis in human RPMI-8226 assessed as fold increase in caspase-3/7 activity at 2.12 uM; type: functional
[40] = Apparent permeability of the compound from apical to basolateral side in human Caco-2 cells at pH 6.5 to 7.4; type: ADME, cell-based; details: Caco-2, pH 6.5
[41] = test system: RPMI-8226; assay: Induction of apoptosis in human RPMI-8226 assessed as fold increase in caspase-3/7 activity at 1.68 uM; type: functional
[42] = Apparent permeability across apical to basolateral side in human Caco-2 cells assessed as drug recovery at pH 6.5 to 7.4; type: ADME, cell-based; details: Caco-2, pH 6.5, read-out: Drug recovery
[43] = test system: RPMI-8226; assay: Induction of necrosis in human RPMI-8226 cells assessed as LDH release at 2.12 uM; type: functional
[44] = test system: RPMI-8226; assay: Induction of apoptosis in human RPMI-8226 assessed as fold increase in caspase-3/7 activity at 0.84 uM; type: functional
[45] = test system: RPMI-8226; assay: Induction of necrosis in human RPMI-8226 cells assessed as LDH release at 1.68 uM; type: functional

SMILES: COc1cc2cc(Oc3ccc(NC(=O)Nc4ccc(Cl)c(C(F)(F)F)c4)cc3)c(C)nc2cc1OCCN1CCOCC1
- GI50 [1]: 3.18 µM
- GI50 [2]: 0.67 µM
- GI50 [3]: 1.77 µM
- TGI [4]: 3.18 µM
- TGI [5]: 2.37 µM
- GI50 [6]: 2.34 µM
- TGI [7]: 10.8 µM
- solubility [8]: 349 µM (≈ 221 µg/mL)
- GI50 [9]: 1.65 µM
- TGI [10]: 4.55 µM
- GI50 [11]: 1.65 µM
- TGI [12]: 3.27 µM
- inhibition [13]: 31.6%
- GI50 [14]: 1.4 µM
- TGI [15]: > 100 µM
- GI50 [16]: 2.59 µM
- inhibition [17]: -6.33%
- TGI [18]: 13.7 µM
- GI50 [19]: 5.3 µM
- TGI [20]: 2.81 µM
- TGI [21]: 3.78 µM
- GI50 [22]: 1.57 µM
- TGI [23]: 5.3 µM
- TGI [24]: 7.56 µM
- TGI [25]: 3.12 µM
- TGI [26]: 9.33 µM
- TGI [27]: 4.15 µM
- GI50 [28]: 1.63 µM
- TGI [29]: > 100 µM
- TGI [30]: 3.47 µM
- GI50 [31]: 2.69 µM
- TGI [32]: 4.07 µM
- IC50 [33]: 0.082 µM
- TGI [34]: 17.5 µM
- GI50 [35]: 1.32 µM
- GI50 [36]: 2.05 µM
- inhibition [37]: 13.2%

SMILES: COc1cc2cc(Oc3ccc(NC(=O)Nc4ccc(F)c(C(F)(F)F)c4)cc3)c(C)nc2cc1OCCN1CCOCC1
- GI50 [1]: 1.73 µM
- GI50 [2]: 0.88 µM
- GI50 [3]: 1.78 µM
- TGI [4]: 4.19 µM
- TGI [5]: 2.36 µM
- GI50 [6]: 2.56 µM
- TGI [7]: 11.2 µM
- solubility [8]: 497 µM (≈ 305 µg/mL)
- GI50 [9]: 1.96 µM
- TGI [10]: 5.18 µM
- GI50 [11]: 1.96 µM
- TGI [12]: 3.24 µM
- inhibition [13]: 23.7%
- GI50 [14]: 1.71 µM
- TGI [15]: > 100 µM
- GI50 [16]: 3.66 µM
- TGI [18]: 20.7 µM
- GI50 [19]: 2.69 µM
- TGI [20]: 2.86 µM
- TGI [21]: 4.28 µM
- GI50 [22]: 1.75 µM
- TGI [23]: 10.6 µM
- TGI [24]: 6.14 µM
- TGI [25]: 3.13 µM
- TGI [26]: 8.46 µM
- TGI [27]: 3.44 µM
- GI50 [28]: 1.87 µM
- TGI [29]: 34.3 µM
- TGI [30]: 13.6 µM
- GI50 [31]: 3.5 µM
- TGI [32]: 9.43 µM
- IC50 [33]: 0.067 µM
- TGI [34]: 26.7 µM
- GI50 [35]: 1.91 µM
- GI50 [36]: 3.99 µM
- inhibition [37]: 28.4%

SMILES: COc1cc2cc(Oc3ccc(NC(=O)Nc4cc(C(F)(F)F)cc(C(F)(F)F)c4)cc3)c(C)nc2cc1OCCN1CCOCC1
- GI50 [1]: 1.1 µM
- GI50 [2]: 1.41 µM
- GI50 [3]: 1.12 µM
- TGI [4]: 2.77 µM
- Activity [38]: 9.5%
- TGI [5]: 1.66 µM
- GI50 [6]: 1.59 µM
- TGI [7]: 5.33 µM
- solubility [8]: 317 µM (≈ 211 µg/mL)
- GI50 [9]: 1.66 µM
- fold change (FC) [39]: 2.84
- TGI [10]: 4.24 µM
- GI50 [11]: 1.02 µM
- TGI [12]: 3.79 µM
- inhibition [13]: 26.5%
- GI50 [14]: 1.01 µM
- TGI [15]: 12.8 µM
- GI50 [16]: 1.98 µM
- Papp A→B [40]: 0.4 ×10⁻⁶ cm/s
- inhibition [17]: 1.23%
- TGI [18]: 6.68 µM
- GI50 [19]: 1.53 µM
- TGI [20]: 5.09 µM
- fold change (FC) [41]: 2.68
- TGI [21]: 2.18 µM
- recovery [42]: 74%
- GI50 [22]: 1.4 µM
- TGI [23]: 5.95 µM
- TGI [24]: 4.93 µM
- Activity [43]: 31.65%
- TGI [25]: 6.94 µM
- TGI [26]: 7.35 µM
- TGI [27]: 3.65 µM
- GI50 [28]: 1.02 µM
- fold change (FC) [44]: 1.97
- TGI [29]: 7.23 µM
- TGI [30]: 5.28 µM
- GI50 [31]: 1.93 µM
- TGI [32]: 7.29 µM
- IC50 [33]: 0.193 µM
- Activity [45]: 23.4%
- TGI [34]: 8.5 µM
- GI50 [35]: 2.04 µM
- GI50 [36]: 2.2 µM
- inhibition [37]: 20.5%
